Reference: patent US9321796B2, “Galactopyranosyl derivatives useful as medicaments” (Universiteit Gent, priority 2012, dated 2016)

Legend:
solid tumours = conditions: Phase I study; cited from earlier work
[1] = biological target: T1, TCR / mCD1d-glycolipid complex (Mus musculus, UniProt P11609); assay: Surface plasmon resonance: TCR binding to mCD1d-glycolipid complexes
T1 sequence (P11609 19-297): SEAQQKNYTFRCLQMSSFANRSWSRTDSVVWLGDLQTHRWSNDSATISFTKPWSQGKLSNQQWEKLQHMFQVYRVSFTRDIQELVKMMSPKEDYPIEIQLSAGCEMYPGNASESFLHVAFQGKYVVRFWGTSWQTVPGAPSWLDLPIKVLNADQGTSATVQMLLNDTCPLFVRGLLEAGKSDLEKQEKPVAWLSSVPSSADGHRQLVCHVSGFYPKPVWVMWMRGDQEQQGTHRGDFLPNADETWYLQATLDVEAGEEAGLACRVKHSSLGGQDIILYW
T1 sequence (P01887 21-119 partner): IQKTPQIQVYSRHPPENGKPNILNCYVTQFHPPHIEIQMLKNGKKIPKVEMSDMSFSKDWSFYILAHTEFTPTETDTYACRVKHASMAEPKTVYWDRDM
Description: SPR studies were conducted using a Biacore 3000 (Biacore). Glycolipids were dissolved at 1 mg/ml in DMSO and before loading were diluted to 0.25 mg/ml with vehicle solution (50 mM Tris-HCl pH 7.0, 4.8 mg/ml sucrose, 0.5 mg/ml deoxycholate and 0.022% Tween-20), heated for 20 minutes at 80° C. After cooling 1 μg of each lipid was incubated with 10 μg enzymatically biotinylated mCD1d overnight at room temperature. In one embodiment, 400-600 response units (RU) of mCD1d-glycolipid complexes were immobilized onto a CA capture chip (Biacore). A reference surface was generated in another flow channel with unloaded mCD1d immobilized at RU of 500. During the association phase, a series of increasing concentrations of TCR (in 10 mM HEPES, 150 mM NaCl, 3.0 mM EDTA, pH 7.4) in duplicate were injected for 80 seconds and the dissociation phase (running buffer only) was monitored over 45 minutes. Experiments were carried out at 25° C. with a flow rate of 30 μl/min and performed at least two to three times, each time with a different batch of TCR preparation. Kinetic parameters were calculated after subtracting the response to mCD1d molecules in the reference channel, using a simple Langmuir 1:1 model in the BIA evaluation software version 4.1. One representative sensorgram for each lipid is shown. […]

CD1d = biological target: T2, CD1d (Mus musculus, UniProt P11609); assay: Buried surface area between glycolipid and CD1d in crystal structures; conditions: mCD1d-glycolipid-mTCR crystal structures
T2 construct: made in house
T2 sequence (P11609 19-297 limits assumed): T1 sequence (P11609 19-297)
Description: First, the ternary mCD1d-lipid-mTCR complexes using the glycolipids 4ClPhC-α-GalCer (3a) and PyrC-α-GalCer (3c) were prepared as described previously for NU-α-GalCer, and purified by size exclusion chromatography (SEC) using Superdex S200 10/300 GL (GE Healthcare). Both mCD1d-4ClPhC-α-GalCer-mTCR and mCD1d-PyrC-α-GalCer-mTCR complexes were concentrated to 3.5 mg/ml in SEC buffer (50 mM Hepes, pH 7.5, 150 mM NaCl). Crystals were grown at 22.3° C. by sitting drop vapor diffusion while by mixing 0.5 μl mCD1d-4ClPhC-α-GalCer-mTCR and 0.5 μl precipitate (20% PEG 4000, 0.2 M sodium thiocyanate) or by mixing 1 μl mCD1d-PyrC-α-GalCer-mTCR and […] precipitate (20% PEG 4000, 0.2 M di-ammonium hydrogen citrate), respectively.
Crystals were flash-cooled at 100° K in a mother liquor containing 30% glycerol. […]
The asymmetric unit contains one mCD1d-glycolipid-TCR molecule with estimated solvent content of 57.3% based on a Matthews' coefficient (Vm) of 2.88 A^3/Da for 4ClPhC-α-GalCer and 56.9% (VM) of 2.86 A^3/Da for PyrC-α-GalCer. Crystal structures were determined by molecular replacement using MOLREP as part of the CCP4 suite. […]

CCCCCCCCCCCCCCCCCCCCCCCCCC(=O)N[C@@H](CO[C@H]1O[C@H](CO)[C@H](O)[C@H](O)[C@H]1O)[C@H](O)[C@H](O)CCCCCCCCCCCCCC [α-GalCer, α-galactosyl ceramide]
treatment of solid tumours (solid tumours): ineffective
Kd [1]: 11 nM
buried surface area between glycolipid and CD1d (CD1d): 1,027 Å^2
